Laboratory results reported in US8337906B2, “Nasal composition” (priority 2006, dated 2012).

Assays:
Assay type in all cases: cell-based
[1] = tested on: Pseudomonas aeruginosa (PAO1); experiment: Plate based assay, planktonic growth (OD600); details: dilutions 0.010% to 10.000%
Description: (§1) The anti-bacterial properties of ascorbic acid were evaluated by testing the effect of dilutions of the material on both biofilm and planktonic growth forms of a Pseudomonas aeruginosa isolate that was obtained from patients with cystic fibrosis. Pseudomonas aeruginosa is a common pathogen isolated from the sinuses of patients with chronic rhinosinusitis. The results of this evaluation as shown graphically in FIG. 1.
(§2) Known concentrations of the bacteria were placed in the 96 well culture plates. Dilutions of ascorbic acid (0% (Control), 0.010%, 0.033%, 0.100%, 0.330%, 1.000%, 3.330%, and 10.000%) were added to predetermined wells. […] The bacterial growth was measured both on the pegs as a biofilm and in the wells as planktonic cells.
(§3) More specifically, both bacterial planktonic and biofilm growth were determined using a modification of the plate based assay described by “Moskowitz et al. (Moskowitz S M, Foster J M, Emerson J, et al. Clinically feasible biofilm susceptibility for isolates of Pseudomonas aeruginosa from patients with cystic fibrosis. J. Clin. Microbiol. 2004, 42: 1915-1922). […] The original culture plate was read at OD600 to determine planktonic growth. […] The lid containing the pegs was then removed from the eluted crystal violet and read at 595 nm using a plate reader (Microplate Reader 680, Bio-Rad Hercules, Calif.). […]

[2] = tested on: Pseudomonas aeruginosa (PAO1) biofilm; experiment: Peg-lid biofilm formation assay (crystal violet, 595 nm); details: dilutions 0.010% to 10.000%
Description: as §1, §2, §3

[3] = tested on: human sinonasal mucosa cilia; experiment: Cilia beat frequency (CBF) in human sinonasal mucosa explants
From the text: […] were subjected to concentrations of the nasal spray solution to test the effect of the product on the cilia beat frequency (CBF). The samples were microscopically visualized and the images captured at a rate of 250 frames per second using digital image sampling. The samples were first visualized for two to three seconds every minute for five minutes to establish a baseline Cilia Beating Rate. The samples were then subjected to dilutions of the formulation and the effect on the beating rate was measured by comparing this rate to the baseline rate. The results of the measured CBF are seen in FIG. 2.
More specifically, using a dual temperature controlled perfusion chamber, differential interference contrast microscopy, and high speed digital video, epithelial ciliary function was analyzed as described previously (Schipor I, Palmer I N, Cohen A S, Cohen N A. Quantification of ciliary beat frequency in sinonasal epithelial cells using differential interference contrast microscopy and high speed digital video imaging. Am J Rhino 12006; 20: 124-7). Residual human sinonasal mucosa from surgery was placed in ice cold Locke Ringer's solution [136 mM Nacl, 5.6 mM KCI, 10 mM HEPES, 14.3 mM NaHCO, 1.2 mM MgCl2, 2.2 mM CaCl2 and 11.5 mM dextrose, pH 7.35] for transport. Explants were placed in a glass perfusion chamber on a thermostatically controlled stage and held in place with a nylon grid (1.5 mm) whose outer frame is snapped into the inside of the perfusion chamber. The stage and perfusate were maintained at a temperature between 35.5° C. and 37° C. with a dual channel heater (Warner Inst., Hamden Conn.). […]
Images were visualized using a Leica DMLFSA microscope set on an air table (TMC, Peabody, Mass.) using a water immersion 63× objective and differential interference contrast (DIC) optics (Leica Microsystems, Inc., Bannockburn, Ill.). […] A two to three second video was recorded every minute for 5 minutes to establish a baseline frequency. […] The video images were written to a PCI 2.2 board and then analyzed using Midas Professional Analyst video imaging processing software (XCitex, Cambridge, Mass.).
Beating cilia were analyzed using the 1-D line tracking algorithm included in the motion analysis software. […] The software captured the motion history within the analysis grid for the duration of the video and recorded the gray scale intensity variation as a function of time. […] The frequency was calculated as the inverse of the peak-to-peak distance of this waveform. For each sample, at least three areas of beating cilia within the same field were analyzed and the reported frequencies represent the arithmetic means of these values. […]

## O=C1O[C@H]([C@@H](O)CO)C(O)=C1O [ascorbate, ascorbic acid]
[1]
  inhibition of planktonic form (in words): dose dependent inhibition
[2]
  inhibition of biofilm form (in words): dose dependent inhibition
[3]; 0.01% to 0.1%
  sinonasal CBF with increasing concentration (in words): increasing trend
[3]; 0.1% ascorbate vs control
  increase in CBF: 13.5%
[3]; 0.1% ascorbate, extrapolated from CBF increase
  increase in mucous transport: ~50%
[3]; 0.1% ascorbate, control 11.8 Hz
  CBF: 1304 Hz
